In patent US20250152504A1, “INTRAUTERINE SYSTEMS COMPRISING ANTI-INFECTIVES FOR STEADY-STATE ACCUMULATION TO DISTAL EXTRAUTERINE TISSUE” (priority 2023, published 2025):
Read-outs that look alike come from different tables or passages of the source.

Legend:
[1] = In vitro drug release from TPU matrix delivery system prototypes; format: physicochemical; conditions: for cumulative release of loaded drug: after 30 days
Method: Films were cut into disks with a 1-inch diameter die punch; disks were stacked and placed between two pieces of aluminum foil and compressed under a metal weight on a 120° C. dry bath. Thickness was monitored frequently until it measured 3.5 mm with digital calipers calibrated to 0.01 mm. Devices were cut from thick films using a custom rectangular 3.5 mm×13.3 mm die punch.
(§1) All release tests were performed in sink conditions in PBS supplemented with 2% w/v Cremophor® A25/Emulgin® B25. For the first 7-days of drug release testing, 1 mL samples were taken daily; following 7 days, samples were taken every 3-4 days. At all timepoints, bottles were drained and replaced with fresh media following sampling.
A qualification for selecting an optimal TPU for DPV delivery in this application is the time to achieve 50% cumulative release of drug. This is based on the standard use time of hormonal IUDs, which in practice are removed once about half of the initial load of drug is depleted from the device. Here, this standard was used as a benchmark to evaluate the sustained release properties of candidate delivery system designs. […] The fit of first-order release kinetics to the data was assessed. Equations 1 and 2 describe drug release from a system where dissolution is dependent on a concentration gradient.
Where k is the first order rate constant, Ct is the concentration of drug in solution at time t and C0 is the initial concentration of drug.
Where Q is the amount of drug release in time t and kh is the Higuchi release constant.
Based on the best-fit square-root of time relation, T50% was calculated for each TPU. […] Korsmeyer and Peppas provided a method for understanding drug release mechanisms of swelling and non-swelling polymeric systems, given by Equation 4: […]
Where Mt/M∝ is the fraction of drug released at time t, K is the rate constant, and n is the release exponent.

[2] = Triple active compound (RAL, MVC, ETR) intrauterine system in vivo study, tissue and secretion concentrations; conditions: for concentration at 28 days: 28 days after insertion
Description: Described herein is a study conducted on an intrauterine system having a plurality of delivery systems (such as shown in FIGS. 1D and 1E). This study included three matrix delivery systems. The first delivery system included raltegravir (RAL), the second delivery system included etravirine (ETR), and the third delivery system included maraviroc (MVC). The intrauterine system was implanted and retained in the uterus of a patient for 28 days.
Multiple samples were taken before, during, and after insertion of the intrauterine system. Plasma samples were taken an hour before insertion, at insertion, 24 hours after insertion, 48 hours after insertion, 72 hours after insertion, 7 days after insertion, 14 days after insertion, 21 days after insertion, and 28 days after insertion (when the intrauterine system was removed). Vaginal swabs were taken an hour before insertion, at 7 days after insertion, 14 days after insertion, 21 days after insertion, and 28 days after insertion. Vaginal biopsies were taken an hour before insertion, 7 days after insertion, and 28 days after insertion. Endometrial and cervical biopsies were taken an hour before insertion and 28 days after insertion. Histology was also performed an hour before insertion, and consistent visual inspection was done throughout for safety.

[3] = Post-use assay of residual ARVs in removed IUDs (triple study); format: in vivo; conditions: for Average dose / Total DPV released: 28 days
Description: FIGS. 15A-15C are graphs showing post-use assays of residual anti-retroviral pharmaceutical compositions in removed intrauterine devices, in accordance with the present technology. […]

[4] = In vitro drug release from core-sheath reservoir delivery system prototypes; format: physicochemical; conditions: 6 core-sheath reservoir prototypes, core TPU loaded at 1 wt %, three sheath polymers, 100 and 200 μm sheath thickness
Method: Reservoir delivery system prototypes were prepared using a heated coextrusion process. Briefly, core polymer (PY-PT43DE20) was melted and homogenized with the appropriate mass of dapivirine to achieve 1 wt % and 30 wt % core polymer loading. […] The inner crosshead diameter was varied mid-extrusion to generate devices with sheath thicknesses ranging from 100-200 μm while retaining a constant outer diameter. Material was cut to the desired length per device (13.33 mm) and in-spec devices were identified based on sheath thickness using brightfield microscopy. Devices were incubated for two weeks at 40° C. to equilibrate drug in the core and sheath compartments.
as §1, with “sampling. For reservoir delivery system prototypes, three replicates of each formulation were end capped and one device was tested with no end cap to confirm the integrity of the end cap in preventing uncontrolled diffusion form the exposed core.” for “sampling.”
Both polyether sheath reservoirs (R1 & R2) released DPV faster than polycarbonate sheath reservoirs (R3 & R4). […]

[5] = 1 wt % loading, TPU2 matrix, from best-fit release model
[6] = 1 wt % loading, TPU3 matrix, from best-fit release model
[7] = 1 wt % loading, TPU4 matrix, from best-fit release model
[8] = 1 wt %, TPU4 matrix, total by 30 days
[9] = 16.6 wt % loading, TPU4 matrix, from best-fit release model
[10] = 16.6 wt %, TPU4 matrix, final rate at 30 days, per each ⅓ segment of the device
[11] = 20 wt % matrix, hydrophobic and crystalline TPU, after 20 days

| Compound | Actual T50% ([1]; 1 wt % loading, TPU2 matrix) | First-Order: k ([1]; 1 wt % loading, TPU2 matrix) | Higuchi: kH ([1]; 1 wt % loading, TPU2 matrix) | Predicted T50% [1, 5] | Actual T50% ([1]; 1 wt % loading, TPU3 matrix) | First-Order: k ([1]; 1 wt % loading, TPU3 matrix) | Higuchi: kH ([1]; 1 wt % loading, TPU3 matrix) | Korsmeyer-Peppas Constant: n ([1]; 1 wt % loading, TPU3 matrix) | Predicted T50% [1, 6] | First-Order: k ([1]; 1 wt % loading, TPU4 matrix) | Higuchi: kH ([1]; 1 wt % loading, TPU4 matrix) | Korsmeyer-Peppas Constant: n ([1]; 1 wt % loading, TPU4 matrix) | Predicted T50% [1, 7] | cumulative release [1, 8] | First-Order: k ([1]; 16.6 wt % loading, TPU4 matrix) | Higuchi: kH ([1]; 16.6 wt % loading, TPU4 matrix) | Korsmeyer-Peppas Constant: n ([1]; 16.6 wt % loading, TPU4 matrix) | Predicted T50% [1, 9] | cumulative release of loaded drug ([1]; 16.6 wt %, TPU4 matrix) | release rate [1, 10] | further results |
| --- | --- | --- | --- | --- | --- | --- | --- | --- | --- | --- | --- | --- | --- | --- | --- | --- | --- | --- | --- | --- | --- |
| Cc1cc(C#N)cc(C)c1Oc1nc(Nc2ccc(C#N)cc2)nc(N)c1Br [ETR, etravirine] | 13 days | 0.002, h^−1 | 0.026, %/h^1/2 | 15.5 days | 13 days | 0.002, h^−1 | 0.030, %/h^1/2 | 0.585, | 12 days | 0.0004, h^−1 | 0.011, %/h^1/2 | 0.535, | 90 days | 27.70% | 0.0001, h^−1 | 0.003, %/h^1/2 | 0.599, | 857 days | 8.5% | ~14 µg/day | Korsmeyer-Peppas Constant: n ([1]; 1 wt % loading, TPU2 matrix): 0.484,; concentration at 28 days ([2]; female, human, endometrium, other: intrauterine (implanted intrauterine system), read-out: tissue concentration, Endometrium): 434 ng/mL; Mean concentration in vaginal secretions ([2]; in vivo): 344.30 ng/mL; T50% [3]: 300 days; Average dose [3]: 15.24 µg/day; Total DPV released [3]: 0.43 mg |
| Cc1nnc(C(=O)NC(C)(C)c2nc(C(=O)NCc3ccc(F)cc3)c(O)c(=O)n2C)o1 [RAL, raltegravir] | <1 days | 0.016, h^−1 | 0.052, %/h^1/2 | 2 days | 1 days | 0.004, h^−1 | 0.023, %/h^1/2 | 0.201, | 7 days | 0.0004, h^−1 | 0.010, %/h^1/2 | 0.333, | 109 days | 31.71% | 0.0002, h^−1 | 0.006, %/h^1/2 | 0.455, | 251 days | approximately 18% | around 22 μg/day | time to reach 100% release ([1]; 1 wt %, TPU2 matrix): 7 days; cumulative release of encapsulated drug ([1]; 1 wt %, TPU2 matrix, first 24 hours): approximately 50%; cumulative release of encapsulated drug ([1]; 1 wt %, TPU3 matrix, by 30 days / one month): 100%; cumulative release of encapsulated drug ([1]; 1 wt %, TPU3 matrix, first 24 hours): approximately 50%; First-Order: k ([1]; 30 wt % loading, TPU4 matrix): 0.0002, h^−1; Higuchi: kH ([1]; 30 wt % loading, TPU4 matrix): 0.005, %/h^1/2; Predicted T50% ([1]; 30 wt % loading, TPU4 matrix, from best-fit release model): 363 days; cumulative release of encapsulated drug ([1]; 30 wt %, TPU4 matrix, at 30 days): approximately 17%; release rate ([1]; 30 wt %, TPU4 matrix, at study terminus (30 days), per each ⅓ segment of the device): 41.13 µg/day; concentration at 7 days ([2]; female, human, in vivo, 7 days after insertion, read-out: tissue concentration, Vagina): 194 ng/mL; concentration at 28 days ([2]; female, human, in vivo, read-out: tissue concentration, Cervix): 237 ng/mL; concentration at 28 days ([2]; female, human, in vivo, read-out: tissue concentration, Endometrium): 237 ng/mL; concentration at 28 days ([2]; female, human, in vivo, read-out: tissue concentration, Rectum): 39.9 ng/mL; concentration at 28 days ([2]; female, human, in vivo, read-out: tissue concentration, Vagina): 253 ng/mL; T50% [3]: 101 days; Average dose [3]: 46.31 µg/day; Total DPV released [3]: 1.30 mg |
| Nc1nc2c(ncn2COCCO)c(=O)[nH]1 [ACV, acyclovir] |  |  |  |  |  |  |  |  |  |  |  |  |  |  |  |  |  |  |  |  | minimum release rate ([1]; 20 wt % in TPU4 matrix, 15 days in vitro dissolution): 59 µg/day; cumulative release ([1]; 20 wt % in TPU4 matrix, after 15 days): 18%; Predicted T50% ([1]; 20 wt % in TPU4 matrix, best-fit in vitro release model): 156 days; maximum release ([1]; High saturation matrixes): 1112 micrograms per day; minimum release ([1]; High saturation matrixes): 109 micrograms per day |
| Cc1nc(N(C)C(=O)Cc2ccc(-c3ccccn3)cc2)sc1S(N)(=O)=O [PTV, pritelivir] |  |  |  |  |  |  |  |  |  |  |  |  |  |  |  |  |  |  |  |  | time for half of the original dose to release ([1]; 20 wt % matrix, Higuchi release kinetic analysis): approximately 500 days; cumulative release [1, 11]: approximately 9%; release rate [1, 11]: 30 µg/day; duration of use of the device ([1]; matrix device loaded with 20-30 mg of PTV, tested in vitro for 480 hours): 3-4 years; daily release [4]: 1 to 40 µg/day |
